Legend:
Experiment in all cases: imazapyr whole plant greenhouse test (Example 2)
Assay type in all cases: in vivo
[1] = system: sunflower line L5 (BTK 47), susceptible, WT; details: for Phytotoxicity Index (0-9) 14 days after treatment / biomass accumulation 14 days after treatment, % of untreated / plant height 14 days after treatment, % of untreated: L5; for height reduction: susceptible line
Procedure: (§1) Seeds were sown in Petri dishes and, after germination, plantlets were transplanted to pots of 10 cm of diameter in a potting media consisting of equal parts of vermiculite, soil and sand. Plants were grown in a greenhouse under natural light conditions supplemented with 400 W sodium halide lamps to provide a 16 hr daylength. Day/night temperatures were 25 and 20 ° C., respectively. At the V2-V4 stage (Schneiter & Miller (1981) Crop Sci. 21:901-903) 10 plants of each genotype were randomly assigned to each treatment consisting of eight imazapyr doses (0, 40, 80, 160, 240, 320, 400 and 480 g ai/ha, corresponding to untreated, 0.5×, 1×, 2×, 3×, 4×, 5× and 6×, respectively), and a zero-time biomass determination. Experiment was arranged as a randomized block design with a full factorial (sunflower line×treatment) arrangement of treatments and 10 replications.
(§2) On the day of herbicide application ten plants of each genotype were cut at the cotyledonal node and dried at 60° C. for 48 hrs for zero-time dried weight determination.
(§3) The remaining plants were maintained for 14 days after imazapyr treatment (DAT) and their height, Phytotoxicity Index (PI) and above ground dry biomass were determined Height was determined as the distance between the cotyledonal node and the apex of each plant. Above ground biomass data from each line were converted to biomass accumulation after application by subtracting the appropriate average zero- time biomass from each sample. Dry biomass data were converted to percentages of the untreated control plants within each line to allow direct comparisons between groups.

sunflower line L2, A205V = system: sunflower line L2, A205V
Procedure: as §1, §2, §3

[2] = system: sunflower hybrid H4 (L1 × L4), A205V + A122T
Procedure: as §1, §2, §3

## CC(C)C1(C)N=C(c2ncccc2C(=O)O)NC1=O (stereo not shown) [imazapyr]
[1]; dose 0.5 (0.5x, 40 g ai/ha)
  Phytotoxicity Index (0-9) 14 days after treatment: 9
  biomass accumulation 14 days after treatment, % of untreated: 18.3%
  plant height 14 days after treatment, % of untreated: 20.14%
[1]; dose 1 (1x, 80 g ai/ha)
  Phytotoxicity Index (0-9) 14 days after treatment: 9
  biomass accumulation 14 days after treatment, % of untreated: 15.0%
  plant height 14 days after treatment, % of untreated: 14.58%
[1]; dose 2 (2x, 160 g ai/ha)
  Phytotoxicity Index (0-9) 14 days after treatment: 9
  biomass accumulation 14 days after treatment, % of untreated: 15.0%
  plant height 14 days after treatment, % of untreated: 14.58%
[1]; dose 3 (3x, 240 g ai/ha)
  Phytotoxicity Index (0-9) 14 days after treatment: 9
  biomass accumulation 14 days after treatment, % of untreated: 15.0%
  plant height 14 days after treatment, % of untreated: 14.58%
[1]; dose 4 (4x, 320 g ai/ha)
  Phytotoxicity Index (0-9) 14 days after treatment: 9
  biomass accumulation 14 days after treatment, % of untreated: 15.0%
  plant height 14 days after treatment, % of untreated: 14.58%
[1]; dose 5 (5x, 400 g ai/ha)
  Phytotoxicity Index (0-9) 14 days after treatment: 9
  biomass accumulation 14 days after treatment, % of untreated: 15.0%
  plant height 14 days after treatment, % of untreated: 14.58%
[1]; dose 6 (6x, 480 g ai/ha)
  Phytotoxicity Index (0-9) 14 days after treatment: 9
  biomass accumulation 14 days after treatment, % of untreated: 15.0%
  plant height 14 days after treatment, % of untreated: 14.58%
[1]; 0.5x, 14 DAT
  height reduction: 85%
[1]; from 1x to 6x, of the untreated control plants
  height reduction: approximately 85%
Sunflower line L2, A205V; dose 0.5 (0.5x, 40 g ai/ha)
  Phytotoxicity Index (0-9) 14 days after treatment: 0
  biomass accumulation 14 days after treatment, % of untreated: 99.2%
  plant height 14 days after treatment, % of untreated: 99.2%
Sunflower line L2, A205V; dose 1 (1x, 80 g ai/ha)
  Phytotoxicity Index (0-9) 14 days after treatment: 0
  biomass accumulation 14 days after treatment, % of untreated: 85.0%
  plant height 14 days after treatment, % of untreated: 98.1%
Sunflower line L2, A205V; dose 2 (2x, 160 g ai/ha)
  Phytotoxicity Index (0-9) 14 days after treatment: 3.1
  biomass accumulation 14 days after treatment, % of untreated: 58.1%
  plant height 14 days after treatment, % of untreated: 63.6%
Sunflower line L2, A205V; dose 3 (3x, 240 g ai/ha)
  Phytotoxicity Index (0-9) 14 days after treatment: 3.9
  biomass accumulation 14 days after treatment, % of untreated: 48.1%
  plant height 14 days after treatment, % of untreated: 51.9%
Sunflower line L2, A205V; dose 4 (4x, 320 g ai/ha)
  Phytotoxicity Index (0-9) 14 days after treatment: 5.9
  biomass accumulation 14 days after treatment, % of untreated: 28.8%
  plant height 14 days after treatment, % of untreated: 27.5%
Sunflower line L2, A205V; dose 5 (5x, 400 g ai/ha)
  Phytotoxicity Index (0-9) 14 days after treatment: 6.9
  biomass accumulation 14 days after treatment, % of untreated: 27.4%
  plant height 14 days after treatment, % of untreated: 26.0%
Sunflower line L2, A205V; dose 6 (6x, 480 g ai/ha)
  Phytotoxicity Index (0-9) 14 days after treatment: 6.7
  biomass accumulation 14 days after treatment, % of untreated: 24.9%
  plant height 14 days after treatment, % of untreated: 29.3%
[2]; dose 0.5 (0.5x, 40 g ai/ha)
  Phytotoxicity Index (0-9) 14 days after treatment: 0.0
  biomass accumulation 14 days after treatment, % of untreated: 99.479%
  plant height 14 days after treatment, % of untreated: 100.0%
[2]; dose 1 (1x, 80 g ai/ha)
  Phytotoxicity Index (0-9) 14 days after treatment: 0.0
  biomass accumulation 14 days after treatment, % of untreated: 97.8%
  plant height 14 days after treatment, % of untreated: 99.6%
[2]; dose 2 (2x, 160 g ai/ha)
  Phytotoxicity Index (0-9) 14 days after treatment: 0.0
  biomass accumulation 14 days after treatment, % of untreated: 92.2%
  plant height 14 days after treatment, % of untreated: 100.0%
[2]; dose 3 (3x, 240 g ai/ha)
  Phytotoxicity Index (0-9) 14 days after treatment: 0.0
  biomass accumulation 14 days after treatment, % of untreated: 88.2%
